Experimental data published in paper PMC6406907, “A H2AX–CARP-1 Interaction Regulates Apoptosis Signaling Following DNA Damage” (Cancers, 2019).

Tested on: MDA-MB-468 cells
Test: Comet assay (DNA damage), MDA-MB-468
Assay type: cell-based, human
Parameters: Tail Moment (Mean) / Olive Tail Moment (Mean): unit not given here
Details: for percentage of tail DNA and tail moment: 10 μM, 1, 3, 6, 12 h, MDA-MB-468; for Tail Moment (Mean) / Olive Tail Moment (Mean) / %Tail DNA (Mean): MDA-MB-468, 10 µM; for Tail Moment (Mean): control 0.031056; for Olive Tail Moment (Mean): control 0.286711; for %Tail DNA (Mean): control 2.39052, alkaline electrophoresis, Vista Green
Method: The DNA damage assay was performed using a comet assay kit 96-well plate (Cell Bio Labs, CA, USA) as per the manufacturer’s instructions. Briefly, the cell suspension was mixed with the low-melting agarose at 1:20 ratio and added to the pre-coated 96 well plate. The cells were then subjected to lysis for 1 h, followed by alkaline electrophoresis. The plate was then washed in 70% ethanol and Vista Green DNA dye was added. The comets were visualized in Zeiss LSM780 Confocal microscope. The images were processed using Zeiss ZEN lite software and the comet parameters were measured using Open comet software.
Adriamycin is well known to induce DNA damage. Given the critical role of CARP-1 in apoptotic signaling by Adriamycin and CFM compounds, and the fact that stress-activated protein kinases (SAPKs) p38 and JNKs are activated in apoptosis signaling by CFM-4.16 [6, 12, 13, 14, 15, 16, 17, 18], we next determined whether CFM-4.16 also provoked DNA damage. We treated MDA-MB-468 and HeLa cells with a 10 μM dose of Adriamycin or CFM-4.16 for 1, 3, 6, and 12 h, followed by assessment of damaged DNA by the comet assay as described in Section 2. The presence of comet-like tails that contain the fragmented cellular DNA is a well-known marker/indicator of apoptosis. We measured the comet parameters such as percentage tail DNA and mean tail moment. […] Of note is the fact that Adriamycin and related anthracyclines intercalate between DNA bases and trap topoisomerase II (TopoII) in the double-strand cleavage form, thus introducing double-strand breaks (DSBs) due to TopoII poisoning. It remains to be clarified whether CFM-4.16 also targets cellular DNA and/or the associated DNA repair complex protein(s) to introduce DNA strand breaks, or activates caspase-activated DNAses to breakdown cellular genomic DNA.
Figure 2 Adriamycin and CFM-4.16 induce DNA damage. Cells were treated with the noted dose of respective compound for indicated time periods. Mean values for percentage tail DNA content (A,C) and Olive tail moment (B,D) for respective cells from control and treatment periods for each compound were measured using software recommended by the manufacturer of the kit for measurement of DNA damage (Cell Bio Labs, CA, USA). The columns in each chart indicate average values for respective treatment condition; bars, SE; * p ≤ 0.05.
Table S1. Adriamycin and CFM-4.16 stimulate DNA Damage in a time-dependent manner. MDA-MB-468 and HeLa cells were with noted dose of respective compound for indicated time periods.
Mean values for % tail DNA, Tail moment, and Olive tail moment for respective cells from control and treatment periods for each compound were measured using software recommended by the manufacturer of the kit for measurement of DNA damage (Cell Bio Labs, San Diego, CA, USA). The p values for each of the parameter are indicated below the mean values in each column for the treatment time period with each compound for both the cell lines.
Adriamycin (10 µM) CFM-4.16 (10 µM)

Structure (SMILES) | percentage of tail DNA and tail moment | Tail Moment (Mean) (1 h) | Olive Tail Moment (Mean) (1 h) | %Tail DNA (Mean) (1 h) [%] | Tail Moment (Mean) (3 h) | Olive Tail Moment (Mean) (3 h) | %Tail DNA (Mean) (3 h) [%] | Tail Moment (Mean) (6 h) | Olive Tail Moment (Mean) (6 h) | %Tail DNA (Mean) (6 h) [%] | Tail Moment (Mean) (12 h) | Olive Tail Moment (Mean) (12 h) | %Tail DNA (Mean) (12 h) [%]
COc1cccc2c1C(=O)c1c(O)c3c(c(O)c1C2=O)C[C@@](O)(C(=O)CO)C[C@@H]3O[C@H]1C[C@H](N)[C@H](O)[C@H](C)O1 [Adriamycin, doxorubicin, reference compound] | significantly increased | 3.462 | 2.898 | 18.75 | 14.01 | 9.946 | 25.75 | 24.19 | 14.06 | 45.55 | 43.07 | 20.46 | 63.02
O=C1N(Cc2ccccc2Cl)c2ccccc2C12NN=C(c1cccc(Cl)c1)S2 (centres unmarked) [CFM-4.16] | significantly increased | 0.1504 | 0.7773 | 2.507 | 7.45 | 4.594 | 17.24 | 25.29 | 13.06 | 36.18 | 45.02 | 24.23 | 55.6
